{"source": "paper PMC9385959", "about": "“Mammalian derived lipocalin and secretoglobin respiratory allergens strongly bind ligands with potentially immune modulating properties” (Frontiers in Allergy, 2022)", "key": {"[1]": {"experiment": "Thermal stability by circular dichroism spectroscopy with temperature ramping", "format": "physicochemical", "details": "temperature ramping 20–95°C, 10 μmol/L protein", "method": "Secondary protein structure formation and thermal stability of the recombinant proteins were determined by circular dichroism (CD) spectroscopy. Recombinant proteins were diluted with ultrapure water to a concentration of 10 μmol/L in a volume of 300 μL to measure their CD spectra using the Chirascan CD spectrometer (Applied Photophysics). Far-ultraviolet CD spectra were recorded at 180–260 nm (0.8 nm bandwidth, 0.4 s interval, 3 repeats) in a cuvette of 0.1 cm path length. Thermal sensitivity was assessed by ramping temperatures (20–95°C) with an internal temperature probe and continuous CD-signal measurements (ramping rate 0.82°C per minute, no repeats). After 10 min at 95°C another CD spectrum was recorded with 3 repeats, then the temperature was decreased back to 20°C for a final scan with 3 repeats to analyze the refolding capacity. The read-out was converted with respective protein details, such as molecular weight and number of amino acids, into degrees^*cm2^*dmol−1. Chirascan Global 3 Analysis Software (Applied Photophysics) and DichroWeb online server ([36]) with solutions from the CDSSTR method and reference data set 7 ([37]) were used to analyze and interpret CD spectra, measured as a function of temperature."}, "Fel d 4": {"target": "T1, Fel d 4 (Felis catus, UniProt Q5VFH6)", "T1 construct": "polyhistidine tag (C); made in house; host or cells: E. coli Rosetta-gami 2", "T1 sequence (Q5VFH6 16-186)": "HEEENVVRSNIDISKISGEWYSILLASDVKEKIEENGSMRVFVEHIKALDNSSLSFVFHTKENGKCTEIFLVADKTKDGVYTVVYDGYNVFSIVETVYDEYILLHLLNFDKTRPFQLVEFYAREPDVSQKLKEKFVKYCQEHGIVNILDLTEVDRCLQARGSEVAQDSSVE", "experiment": "Fluorochrome binding to Fel d 4 (emission spectra and titration)", "set-up": "species or system cat", "details": "5 μM Fel d 4 with 5 μM fluorochrome", "method": "(§1) Stock solutions were prepared at a concentration of 10 mM in 100% ethanol for the fluorochromes 1-aminoanthracene (1-AMA), 8-anilino-1-naphthalensulfonic acid (1,8-ANS) and for all ligands, and in 100% methanol for n-phenyl-1-naphthylamine (1-NPN), respectively. Iron catecholate ligands (siderophores) were prepared as previously described ([46]). Fluorochrome-protein complexes were analyzed at an equimolar concentration of 5 μM in PBS with 5% ethanol in a volume of 100 μL per well in black 96-well non-binding microplates (Greiner Bio-One GmbH, Frickenhausen, Germany). Solutions containing only protein or the respective fluorescent probe in PBS with 5% ethanol served as controls. Fluorochrome-protein complexes were incubated with orbital shaking for 10 min at 500 rpm at room temperature (RT) before measurement using the fluorescence reader TECAN Infinite 200 Pro (Tecan Trading AG, Switzerland). Excitation wavelengths were fixed at 380 nm for 1-AMA and 1,8-ANS, and 337 nm for 1-NPN. Fluorescence emission spectra were recorded in 5 nm steps between 420 and 560 nm for 1-AMA and 1,8-ANS and between 380 and 500 nm for 1-NPN. The establishment of fluorescent quenching assay parameters for each allergen is explained in the results Section Fluorescence-quenching assay set up. Binding affinities were analyzed by non-linear regression in GraphPad Prism Version 9.3.1 (GraphPad Software, LLC). For the ligand competition assays, ligands were added to fluorochrome-allergen complexes with a final buffer composition of 5% ethanol in PBS in a volume of 100 μL and incubated for 30 min at 500 rpm at RT and further equilibrated for another 30 min without shaking before fluorescence measurement.\n(§2) We established four specific parameters for each allergen to set up a fluorescence quenching assay for screening a large array of potential ligands: (i) a compatible fluorochrome, (ii) the optimal emission wavelength to analyze the fluorescence intensities of the fluorochrome-allergen complex, (iii) the binding affinities of the fluorochrome-allergen complex (Kd values) and (iv) optimal fluorochrome concentrations (EC50 values).\n(§3) For each allergen, we identified a suitable fluorescence probe by adding equimolar concentrations of either 1-AMA or 1,8-ANS to the recombinant proteins. […] 1-AMA was chosen for the guinea pig lipocalin Cav p 1 isoallergens, rabbit lipocalin Ory c 2, and rabbit secretoglobin Ory c 3. Fluorescence intensities increased 20–60-fold upon binding. While the emission maxima shifted from 565 to 485 nm for lipocalin fluorochrome-allergen pairs, the blue shift was less pronounced for the Ory c 3 secretoglobin-1-AMA complex to 505 nm (Figure 4B). […] Respective Kd were calculated after background subtraction (Figure 4B). As ethanol gave a high background with 1-NPN, these experiments were carried out with methanol to […] the signal-to-noise-ratio.\n(§4) We evaluated the binding affinities of the fluorochromes to the allergens by dose-dependent titration curves. Increasing fluorochrome concentrations were added to a fixed protein concentration of 5 μM until saturation (Figure 5). Fluorescence intensities were recorded at specific emission maxima for each fluorochrome-allergen complex, determined using the emission spectra shown in Figure 4. We analyzed the specific binding of fluorochrome-allergen complexes by non-linear regression and calculated equilibrium dissociation constants (Kd) and EC50 values (Table 2). EC50 values are equal to fluorochome concentrations in which half of the allergen binding sites are saturated and these concentrations were used in subsequent ligand competition assays. We chose a one-site specific binding model for all allergens, except for human LCN1, where multiple binding site analysis emerged as the model of best fit and two Kd values were calculated. Evidence for internal and external binding sites for 1,8-ANS and LCN1 were already reported ([58])."}, "Can f 6": {"target": "T2, Can f 6 (Canis lupus familiaris, UniProt H2B3G5)", "T2 construct": "polyhistidine tag (C); made in house; host or cells: E. coli Rosetta-gami 2", "T2 sequence (H2B3G5 16-190)": "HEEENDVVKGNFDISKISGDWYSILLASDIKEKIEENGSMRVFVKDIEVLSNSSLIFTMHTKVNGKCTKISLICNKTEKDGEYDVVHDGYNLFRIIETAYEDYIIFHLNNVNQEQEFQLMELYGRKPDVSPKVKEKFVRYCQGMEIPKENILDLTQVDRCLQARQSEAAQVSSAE", "experiment": "Fluorochrome binding to Can f 6 (emission spectra and titration)", "set-up": "species or system dog", "details": "5 μM Can f 6 with 5 μM fluorochrome", "method": "as §1, §2, §3, §4"}, "Cav p 1.0101": {"target": "Cav p 1.0101 (Cavia porcellus, UniProt A0A484HM70, S19A)", "sequence (A0A484HM70 entry or part of it S19A)": "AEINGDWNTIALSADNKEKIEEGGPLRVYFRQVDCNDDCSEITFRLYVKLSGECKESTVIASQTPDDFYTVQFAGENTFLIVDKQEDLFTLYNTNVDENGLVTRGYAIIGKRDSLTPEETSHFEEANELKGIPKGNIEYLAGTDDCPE", "experiment": "Fluorochrome binding to Cav p 1.0101 (emission spectra and titration)", "set-up": "species or system guinea pig", "details": "5 μM Cav p 1.0101", "method": "as §1, with “For the ligand competition assays, ligands were added to fluorochrome-allergen complexes with a final buffer composition of 5% ethanol in PBS in a volume of 100 μL and incubated for 30 min at 500 rpm at RT and further equilibrated for another 30 min without shaking before fluorescence measurement.” left out"}, "Cav p 1.0201": {"target": "Cav p 1.0201 (Cavia porcellus, UniProt A0A484HRI4)", "sequence (A0A484HRI4 entry or part of it)": "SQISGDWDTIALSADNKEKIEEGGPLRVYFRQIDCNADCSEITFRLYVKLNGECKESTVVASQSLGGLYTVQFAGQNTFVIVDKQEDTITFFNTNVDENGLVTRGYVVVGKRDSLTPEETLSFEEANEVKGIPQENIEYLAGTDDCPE", "experiment": "Fluorochrome binding to Cav p 1.0201 (emission spectra and titration)", "set-up": "species or system guinea pig", "details": "5 μM Cav p 1.0201", "method": "as §1, with “For the ligand competition assays, ligands were added to fluorochrome-allergen complexes with a final buffer composition of 5% ethanol in PBS in a volume of 100 μL and incubated for 30 min at 500 rpm at RT and further equilibrated for another 30 min without shaking before fluorescence measurement.” left out"}, "Ory c 2": {"target": "Ory c 2", "experiment": "Fluorochrome binding to Ory c 2 (emission spectra and titration)", "set-up": "species or system rabbit", "method": "as §1, with “measurement. […]” for “measurement.”\nFor each allergen, we identified a suitable fluorescence probe by adding equimolar concentrations of either 1-AMA or 1,8-ANS to the recombinant proteins. […] Fluorescence intensities increased 20–60-fold upon binding. […] Respective Kd were calculated after background subtraction (Figure 4B). […]\nWe evaluated the binding affinities of the fluorochromes to the allergens by dose-dependent titration curves. […]"}, "Ory c 3": {"target": "Ory c 3 (Oryctolagus cuniculus, UniProt Q9GK63+Q9GK67)", "sequence (Q9GK67 entry or part of it)": "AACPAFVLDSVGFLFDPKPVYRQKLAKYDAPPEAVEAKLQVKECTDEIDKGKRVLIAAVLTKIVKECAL", "sequence (Q9GK63 entry or part of it)": "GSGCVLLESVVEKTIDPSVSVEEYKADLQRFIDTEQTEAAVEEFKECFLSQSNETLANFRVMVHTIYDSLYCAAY", "experiment": "Fluorochrome binding to Ory c 3 (emission spectra and titration)", "set-up": "species or system rabbit", "details": "5 μM Ory c 3", "method": "as §1, with “For the ligand competition assays, ligands were added to fluorochrome-allergen complexes with a final buffer composition of 5% ethanol in PBS in a volume of 100 μL and incubated for 30 min at 500 rpm at RT and further equilibrated for another 30 min without shaking before fluorescence measurement.” left out"}, "Fel d 1": {"target": "T3, Fel d 1 (Felis catus, UniProt P30438+P30440)", "T3 construct": "polyhistidine tag (C); made in house; host or cells: E. coli Rosetta-gami 2", "T3 sequence (P30438+P30440 with tags, fused parts or gaps)": "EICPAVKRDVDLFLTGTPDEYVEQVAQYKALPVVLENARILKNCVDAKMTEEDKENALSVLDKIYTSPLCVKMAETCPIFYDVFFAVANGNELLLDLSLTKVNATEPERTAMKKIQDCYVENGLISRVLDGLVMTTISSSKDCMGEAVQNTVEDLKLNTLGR", "experiment": "Fluorochrome binding to Fel d 1 (emission spectra and titration)", "set-up": "species or system cat", "details": "5 μM Fel d 1 with 5 μM fluorochrome", "method": "as §1, §2, §3, §4"}, "[2]": {"details": "one-site specific binding, read-out: Fluorochrome dissociation constant Kd"}, "[3]": {"details": "read-out: EC50 fluorochrome concentration"}}, "note": "Values joined by “and” are separate entries in the source; they are usually repeats but may differ in a detail not shown here. Equal entries are not always repeated."}
{"molecule": "LCN1: recombinant human lipocalin-1 (tear lipocalin, von Ebner's gland protein), non-allergenic control, produced in E. coli", "values": [{"measurement": "Melting point", "setting": "[1]", "result": "74.8 ± 0.2", "unit": "C°"}]}
{"molecule": "CN(C)c1cccc2c(S(=O)(=O)NCCCCCCCCCCC(=O)O)cccc12", "note": "[DAUDA, 11-(Dansylamino)undecanoic acid]", "values": [{"measurement": "Increase of fluorescence intensity upon binding", "setting": "Fel d 4", "result": "neither reacted"}, {"measurement": "Increase of fluorescence intensity upon binding", "setting": "Can f 6", "result": "neither reacted"}]}
{"molecule": "Nc1cccc2cc3ccccc3cc12", "note": "[1-AMA, 1-aminoanthracene]", "values": [{"measurement": "Kd", "setting": "Cav p 1.0101; [2]", "result": "6.57 µM and 6.6 µM"}, {"measurement": "EC50", "setting": "Cav p 1.0101; [3]", "result": "4.95 µM and 5 µM"}, {"measurement": "Kd", "setting": "Cav p 1.0201; [2]", "result": 13.9, "unit": "µM"}, {"measurement": "EC50", "setting": "Cav p 1.0201; [3]", "result": 9.2, "unit": "µM"}, {"measurement": "Kd", "setting": "Ory c 2; 5 μM Ory c 2, one-site specific binding, read-out: Fluorochrome dissociation constant Kd", "result": 5.7, "unit": "µM"}, {"measurement": "EC50", "setting": "Ory c 2; 5 μM Ory c 2, read-out: EC50 fluorochrome concentration", "result": 4.2, "unit": "µM"}, {"measurement": "Increase of fluorescence intensity upon binding", "setting": "Ory c 2; 5 μM Ory c 2 with 5 μM fluorochrome, range stated for four allergens together", "result": "20–60 fold"}, {"measurement": "Kd", "setting": "Ory c 3; [2]", "result": 9, "unit": "µM"}, {"measurement": "EC50", "setting": "Ory c 3; [3]", "result": 6.9, "unit": "µM"}, {"measurement": "Increase of fluorescence intensity upon binding", "setting": "Fel d 1", "result": "negligible interactions"}, {"measurement": "Increase of fluorescence intensity upon binding", "setting": "Fel d 4", "result": "neither reacted"}, {"measurement": "Increase of fluorescence intensity upon binding", "setting": "Can f 6", "result": "neither reacted"}]}
